Where only a bound is given, the exact number is not on record here.

The assay addresses human V2 vasopressin receptor subtype (Homo sapiens, UniProt P30518). Put plainly: Vasopressin binding in CHO cell membranes expressing human vasopressin V2 subtype receptors. The conditions noted are these: [3H]arginine vasopressin; for IC50: value in parentheses; for inhibition at 0.1 µM / V2 % inhibition at 100 nM: 100 nM. An excerpt:
Vasopressin Binding in Chinese Hamster Ovary Cell Membranes Expressing Human Vasopressin V2 Subtype Receptors
Chinese Hamster Ovary (CHO) cells stably transfected with the human V2 subtype receptors were obtained from M. Thibonnier, Case Western Reserve University School of Medicine, Cleveland, Ohio.
A. Passaging and Amplification of Cells:
CHO cells transfected with the human vasopressin V2 subtype receptors obtained from M. Thibonnier (pZeoSV vector) are allowed to grow to confluency (approx. >90%) in T-150 flasks under sterile conditions, in a cell culture medium of F-12 Nutrient Mixture (HAM) with L-glutamine (Gibco Cat. # 11765-054) containing 15 mM HEPES (Gibco Cat. # 15630-080), 1% antibiotic/antimycotic (add 5 mL 100×, Gibco Cat. # 15240-062 per 500 mL F-12), 250 μg/mL Zeocin (add 1.25 mL of 100 mg/mL Invitrogen R-250-01 per 500 mL F-12) and 10% Fetal Bovine Serum (Qualified, heat inactivated, Gibco Cat. # 16140-063). The medium is removed by aspiration and the cells washed with 10 mL of Hank's Balanced Salt solution (Gibco Cat. # 14175-095). The salt solution is removed by aspiration and the cells trypsinized with 5 mL of trypsin-EDTA (0.05% trypsin, 0.53 mM EDTA-4Na, Gibco Cat. # 25300-070) for 1 min. The trypsin is removed by aspiration and the cells dislodged by tapping. Cell Culture medium (e.g. 30 mL for 1:30 split) is immediately added and mixed well to inactivate trypsin. 1 mL of detached cells is added to new culture flasks containing fresh Cell Culture medium (e.g. into 25 mL per T-150 flask), and mixed gently. The cells are incubated at 37° C. in 5% CO2. The medium is changed at 3 to 4 day interval (or as appropriate). The cells grow to confluency (approx. >75%–95%) within 7–8 days. All steps are done under sterile conditions. B. Membrane Preparation: The cells are washed twice gently with Hank's Balanced Salt solution (e.g. use 10 mL per T-150 flask). The excess solution is removed and the cells bathed for 15–30 min. in an enzyme-free Cell Dissociation Buffer (e.g. use 8 mL Hank's Based, Gibco Cat. # 13150-016 per T-150 flask) until cells are loosened. The contents are transferred to centrifuge tubes (50 mL) kept in an ice bath. All subsequent steps are done at 4° C. The tubes are centrifuged at 300× g for 15 min (1380 rpm on SORVAL, Model RT6000D, using the rotor for 50 mL tubes). The supernatant is discarded and the cells suspended in homogeneizing buffer(10 mM Tris-HCl containing 0.25 M sucrose and 1 mM EDTA, pH 7.4) ensuring that the volume of the buffer is about ten times the volume of the cell pellet. The cells are pooled into a centrifuge tube (50 mL) and homogenized with a Polytron at setting 6 for 10 sec. The homogenate is transferred into a Potter-Elvjehm homogeneizer and homogenized with 3 strokes. The homogenate is centrifuged at 1500×g for 60 min at 4° C. (3100 rpm using SORVAL, model RT6000D, using the rotor for 50 mL tubes). The pellet is discarded. The supernatant is centrifuged at 100,000×g for 60 min. at 4° C. (Beckman L8-80M ultracentrifuge; spin at 37,500 rpm with rotor type 70 Ti for 50 mL tubes; 38,000 rpm with type 80Ti for 15 mL tubes; or 35,800 rpm with rotor type 45Ti). The supernantant is discarded and the pellet suspended in 3 to 4 mL of Tris buffer (50 mM TRIS-HCl, pH 7.4). The protein content is estimated by the Bradford or Lowry method. The volume of the membrane suspension is adjusted with the membrane buffer (50 mM Tris-HCl containing 0.1% BSA and 0.1 mM PMSF) to give 3.0 mg/mL (or as appropriate) of protein. The membranes are aliquoted and stored at −70° C. C. Radioligand Binding Assay: In wells of a 96-well format microtiter plate, is added 90, 110 or 130 μL (to make up a final volume of 200 μL) of assay buffer containing 50 mM of Tris-HCl (pH 7.4), […], 1 mg % aprotinin, 1 mg % leupeptin, 2 mg % 1,10-phenanthroline, 10 mg % trypsin inhibitor, and 0.1 mM PMSF. The inhibitors are added on the day of the experiment. […]

human V2 vasopressin receptor subtype, sequence (P30518 whole entry): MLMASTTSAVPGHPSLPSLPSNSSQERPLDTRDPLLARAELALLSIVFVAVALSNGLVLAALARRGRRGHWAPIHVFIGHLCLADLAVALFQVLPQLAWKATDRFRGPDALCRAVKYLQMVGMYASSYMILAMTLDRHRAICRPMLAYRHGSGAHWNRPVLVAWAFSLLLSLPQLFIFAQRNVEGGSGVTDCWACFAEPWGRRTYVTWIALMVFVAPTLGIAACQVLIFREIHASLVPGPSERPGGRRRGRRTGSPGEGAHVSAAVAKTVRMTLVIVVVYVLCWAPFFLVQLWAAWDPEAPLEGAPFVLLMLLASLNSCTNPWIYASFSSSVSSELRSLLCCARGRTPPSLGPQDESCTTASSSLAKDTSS

The IC50 is the concentration that gives 50% inhibition. On to `O=C(c1ccc2n1Cc1ccccc1N(C(=O)c1ccc(C3CCCCC3)cc1)C2)N1CCC(N2CCCCC2)CC1` [Example 26, [1,4′]Bipiperidinyl-1′-yl-[10-(4-cyclohexyl-benzoyl)-10,11-dihydro-5H-pyrrolo[2,1-c][1,4]benzodiazepin-3-yl]-methanone], for which the IC50 was over 1 µM.

By inhibition is commonly meant the drop in the measured response relative to a control, in per cent. Regarding `Cc1ccccc1N1CCN(C(=O)c2ccc3n2Cc2ccccc2N(C(=O)c2ccc(C4CCCCC4)cc2)C3)CC1` [Example 27, [10-(4-Cyclohexyl-benzoyl)-10,11-dihydro-5H-pyrrolo[2,1-c][1,4]benzodiazepin-3-yl][4-(2-methylphenyl)-1-piperazinyl]-methanone], the inhibition at 0.1 µM was 9%.

Take `O=C(c1ccc2n1Cc1ccccc1N(C(=O)c1ccc(C3CCCCC3)cc1)C2)N1CCN(c2ccccn2)CC1` [Example 28, [10-(4-Cyclohexyl-benzoyl)-10,11-dihydro-5H-pyrrolo[2,1-c][1,4]benzodiazepine 3-yl][4-(2-pyridinyl)-1-piperazinyl]-methanone]: the IC50 was over 1 µM.

With `COc1ccc(NC(=O)c2ccc3n2Cc2ccccc2N(C(=O)c2ccc(C4CCCCC4)cc2)C3)cc1` [Example 29, 10-(4-Cyclohexyl-benzoyl)-10,11-dihydro-5H-pyrrolo[2,1-c][1,4]benzodiazepine-3-carboxylic acid (4-methoxy-phenyl)-amide], the inhibition at 0.1 µM is 8%.

Turning to `CN1CCCN(C(=O)c2ccc3n2Cc2ccccc2N(C(=O)c2ccc(C4CCCCC4)cc2)C3)CC1` [Example 30, [10-(4-Cyclohexyl-benzoyl)-10,11-dihydro-5H-pyrrolo[2,1-c][1,4]benzodiazepin-3-yl](4-methyl-[1,4]-diazepan-1-yl)-methanone], the inhibition at 0.1 µM was 15%.

Take `O=C(C(=O)N1CCC(N2CCCCC2)CC1)c1ccc2n1Cc1ccccc1N(C(=O)c1ccc(C3CCCCC3)cc1)C2` [Example 31, 1-[1.4′]Bipiperidinyl-1′-yl-2-[10-(4-cyclohexyl-benzoyl)-10,11-dihydro-5H-pyrrolo[2,1-c][1,4]benzodiazepin-3-yl]-ethane-1,2-dione]: the “V2 % inhibition at 100 nM” value came out at 2%.

For `CN1CCN(C(=O)C(=O)c2ccc3n2Cc2ccccc2N(C(=O)c2ccc(C4CCCCC4)cc2)C3)CC1` [Example 32, 1-[10-(4-Cyclohexyl-benzoyl)-10,11-dihydro-5H-pyrrolo[2,1-c][1,4]benzodiazepin-3-yl]-2-(4-methyl-1-piperazin-1-yl)-1,2-ethane-1,2-dione], the “V2 % inhibition at 100 nM” value is listed as 6%.

Consider `CN(C)CCCNC(=O)c1ccc2n1Cc1ccccc1N(C(=O)c1ccc(C3CCCCC3)cc1)C2` [Example 33, 10-(4-Cyclohexyl-benzoyl)-N-[3-(dimethylamino)propyl]-10,11-dihydro-5H-pyrrolo[2,1-c][1,4]benzodiazepine-3-carboxamide], for which the inhibition at 0.1 µM is 14%.

For the molecule `CN(C)CCN(C)C(=O)c1ccc2n1Cc1ccccc1N(C(=O)c1ccc(C3CCCCC3)cc1)C2` [Example 34, 10-(4-Cyclohexyl-benzoyl)-N-[2-(dimethylamino)-ethyl]-N-methyl-10,11-dihydro-5H-pyrrolo[2,1-c][1,4]benzodiazepine-3-carboxamide], the inhibition at 0.1 µM was 17%.

Take `CN(C)CCCN(C)C(=O)c1ccc2n1Cc1ccccc1N(C(=O)c1ccc(C3CCCCC3)cc1)C2` [Example 35, 10-(4-Cyclohexyl-benzoyl)-N-[3-(dimethylamino)propyl]N-methyl-10,11-dihydro-5H-pyrrolo[2,1-c][1,4]benzodiazepine-3-carboxamide]: the inhibition at 0.1 µM amounted to 16%.

For `O=C(NCCCn1ccnc1)c1ccc2n1Cc1ccccc1N(C(=O)c1ccc(C3CCCCC3)cc1)C2` [Example 36, 10-(4-Cyclohexyl-benzoyl)-N-[3-(1H-imidazol-1-yl)propyl]-10,11-dihydro-5H-pyrrolo[2,1-c][1,4]benzodiazepine-3-carboxamide], the inhibition at 0.1 µM was 1%.

For `O=C(NCCN1CCCCC1)c1ccc2n1Cc1ccccc1N(C(=O)c1ccc(C3CCCCC3)cc1)C2` [Example 37, 10-(4-Cyclohexyl-benzoyl)-N-[2-(1-piperidinyl)ethyl]-10,11-dihydro-5H-pyrrolo[2,1-c][1,4]benzodiazepine-3-carboxamide], the inhibition at 0.1 µM turned out to be 8%.

As for `CN1CCCC1CCNC(=O)c1ccc2n1Cc1ccccc1N(C(=O)c1ccc(C3CCCCC3)cc1)C2` (centres unmarked) [Example 38, 10-(4-Cyclohexyl-benzoyl)-N-[2-(1-methyl-2-pyrrolidinyl)ethyl]-10,11-dihydro-5H-pyrrolo[2,1-c][1,4]benzodiazepine-3-carboxamide], the inhibition at 0.1 µM turned out to be 1%.

Take `CN1CCC(N(C)C(=O)c2ccc3n2Cc2ccccc2N(C(=O)c2ccc(C4CCCCC4)cc2)C3)CC1` [Example 39, 10-(4-Cyclohexyl-benzoyl)-N-methyl-N-(1-methyl-4-piperidinyl)-10,11-dihydro-5H-pyrrolo[2,1-c][1,4]benzodiazepine-3-carboxamide]: the inhibition at 0.1 µM was 13%.

Take `CN1CCC(N(C)C(=O)c2ccc3n2Cc2ccccc2N(C(=O)c2ccc(C4CCCCC4)cc2)C3)C1` (centres unmarked) [Example 40, 10-(4-Cyclohexyl-benzoyl)-N-methyl-N-(1-methyl-3-pyrrolidinyl)-10,11-dihydro-5H-pyrrolo[2,1-c][1,4]benzodiazepine-3-carboxamide]: the inhibition at 0.1 µM was -3%.

`CN(C)CCN1CCN(C(=O)c2ccc3n2Cc2ccccc2N(C(=O)c2ccc(C4CCCCC4)cc2)C3)CC1` [Example 41, [10-(4-Cyclohexyl-benzoyl)-10,11-dihydro-5H-pyrrolo[2,1-c][1,4]benzodiazepin-3-yl]{4-[2-(dimethylamino)ethyl]-1-piperazinyl}methanone]: the inhibition at 0.1 µM was found to be 6%.

As to `O=C(c1ccc2n1Cc1ccccc1N(C(=O)c1ccc(C3CCCCC3)cc1)C2)N1CCN(CCN2CCOCC2)CC1` [Example 42, [10(4-Cyclohexyl-benzoyl)-10,11-dihydro-5H-pyrrolo[2,1-c][1,4]benzodiazepin-3-yl]{4-[2-(4-morpholinyl)ethyl]-1-piperazinyl}methanone], the inhibition at 0.1 µM is 4%.

Take `C=CCN1CCN(C(=O)c2ccc3n2Cc2ccccc2N(C(=O)c2ccc(C4CCCCC4)cc2)C3)CC1` [Example 43, (4-Allyl-1-piperazinyl)[10-(4-cyclohexyl-benzoyl)-10,11-dihydro-5H-pyrrolo[2,1-c][1,4]benzodiazepin-3-yl]methanone]: the inhibition at 0.1 µM was determined as 8%.

`CC(C)N1CCN(C(=O)c2ccc3n2Cc2ccccc2N(C(=O)c2ccc(C4CCCCC4)cc2)C3)CC1` [Example 44, [10-(4-Cyclohexyl-benzoyl)-10,11-dihydro-5H-pyrrolo[2,1-c][1,4]benzodiazepin-3-yl](4-isopropyl-1-piperazinyl)methanone]: the inhibition at 0.1 µM is 1%.

Turning to `CN(C)CCCN1CCN(C(=O)c2ccc3n2Cc2ccccc2N(C(=O)c2ccc(C4CCCCC4)cc2)C3)CC1` [Example 45, [10-(4-Cyclohexyl-benzoyl)-10,11-dihydro-5H-pyrrolo[2,1-c][1,4]benzodiazepin-3-yl]{4-[3-(dimethylamino)propyl]-1-piperazinyl}methanone], the inhibition at 0.1 µM amounted to 10%.
